US8703796B2, “3H-imidazo [4, 5-B] pyridine-6-carboxamides as anti-inflammatory agents” (Boehringer Ingelheim International GmbH, priority 2008, dated 2014)

biological target: T1, recombinant human mPGES-1 (Homo sapiens, UniProt O14684); test: mPGES-1 inhibition, HTRF detection of PGE2; format: biochemical
T1 construct: made in house; host or cells: Rosetta E. coli (microsomal/membrane fraction)
T1 sequence (O14684 1-152): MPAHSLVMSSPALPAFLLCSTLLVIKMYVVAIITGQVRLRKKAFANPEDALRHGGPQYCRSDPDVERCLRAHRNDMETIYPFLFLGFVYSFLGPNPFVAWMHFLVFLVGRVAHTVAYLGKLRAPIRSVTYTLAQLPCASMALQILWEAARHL
Summary of the method: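 First, inhibitor is incubated with microsomal enzyme from Rosetta E. coli in KPi pH 7.4 containing 2.5 mM GSH for 25 minutes at room temperature. Next, PGH2 is added and stopped after one minute with FeCl2 stop solution. Finally, diluted samples undergo HTRF PGE2 quantification.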

Row | Structure (SMILES) | inhibition at 10 µM [%]
1 | CCC1CCC(NC(=O)c2cnc3c(c2)nc(Nc2c(Cl)cccc2Cl)n3C)CC1 (stereo not shown) [Example 438, 2-(2,6-Dichlorophenylamino)-N-(4-ethylcyclohexyl)-3-methyl-3H-imidazo[4,5-b]pyridine-6-carboxamide] | 100
2 | O=C(Nc1ccc(Cl)c(F)c1)c1cnc2[nH]c(Nc3c(Cl)cccc3Cl)nc2c1 [Example 154, 2-(2,6-Dichloro-phenylamino)-3H-imidazo[4,5-b]-pyridine-6-carboxylic acid (4-chloro-3-fluoro-phenyl)-amide] | 91
3 | CC#CCn1c(Nc2c(Cl)cccc2Cl)nc2cc(C(=O)NC3CCCCC3)cnc21 [Example 523, 3-(But-2-ynyl)-N-cyclohexyl-2-(2,6-dichlorophenylamino)-3H-imidazo[4,5-b]pyridine-6-carboxamide] | 96
4 | COCCOc1nc2c(cc1C(=O)Nc1ccc(Br)cc1)nc(Nc1c(Cl)cncc1Cl)n2C [Example 812, 2-(3,5-Dichloro-pyridin-4-ylamino)-5-(2-methoxy-ethoxy)-N-(4-bromo-phenyl)-3-methyl-3H-imidazo[4,5-b]pyridine-6-carboxamide] | 97
5 | Cn1c(Nc2c(Cl)cncc2Cl)nc2cc(C(=O)NCC(F)(F)C(F)(F)C(F)(F)C(F)(F)F)c(OC3CCOC3)nc21 (stereo not shown) [Example 849, 2-(3,5-Dichloro-pyridin-4-ylamino)-5-(tetrahydrofuran-3-yl-oxy)-N-(2,2,3,3,4,4,5,5,5-nonafluoro-pentyl)-3-methyl-3H-imidazo[4,5-b]pyridine-6-carboxamide] | 98
6 | Cn1c(Nc2c(Cl)cncc2Cl)nc2cc(C(=O)N[C@H]3CC[C@H](C(F)(F)F)CC3)c(OCC(F)F)nc21 [Example 838, 2-(3,5-Dichloro-pyridin-4-ylamino)-5-(2,2-difluoro-ethoxy)-N-(trans-4-trifluoromethyl-cyclohexyl)-3-methyl-3H-imidazo[4,5-b]pyridine-6-carboxamide] | 94
7 | COc1nc2c(cc1C(=O)NCc1ncccc1C(F)(F)F)nc(Nc1c(Cl)cccc1Cl)n2C [Example 860, 2-(2,6-Dichloro-phenylamino)-5-methoxy-N-((3-trifluoromethyl-pyridin-2-yl)-methyl)-3-methyl-3H-imidazo[4,5-b]pyridine-6-carboxamide] | 100
8 | Cn1c(Nc2c(Cl)cncc2Cl)nc2cc(C(=O)NCC(F)(F)C(F)(F)C(F)(F)C(F)(F)F)c(OCCF)nc21 [Example 834, 2-(3,5-Dichloro-pyridin-4-ylamino)-5-(2-fluoro-ethoxy)-N-(2,2,3,3,4,4,5,5,5-nonafluoropentyl)-3-methyl-3H-imidazo[4,5-b]pyridine-6-carboxamide] | 99
9 | Cn1c(Nc2c(Cl)cncc2Cl)nc2cc(C(=O)NCC(F)(F)C(F)(F)C(F)(F)C(F)(F)F)c(OCC(F)F)nc21 [Example 840, 2-(3,5-Dichloro-pyridin-4-ylamino)-5-(2,2-difluoro-ethoxy)-N-(2,2,3,3,4,4,5,5,5-nonafluoropentyl)-3-methyl-3H-imidazo[4,5-b]pyridine-6-carboxamide] | 99
10 | CCCCCCNC(=O)c1cnc2c(c1)nc(Nc1c(Cl)cccc1Cl)n2C [Example 439, 2-(2,6-Dichlorophenylamino)-N-hexyl-3-methyl-3H-imidazo[4,5-b]pyridine-6-carboxamide] | 91
